Organism: Rattus norvegicus
Assay: Toxicity in rat assessed as concentration required for producing T/C of 140
Assay type: organism-based
Details: in vivo

Which “log(1/C)” value does the source give for `CN(C)/N=N/c1ccccc1` here?
The value was 2.54.

With `Cc1ccc(/N=N/N(C)C)cc1` as the compound, how does the “log(1/C)” value read?
Its value is 2.62.

For `CN(C)/N=N/c1ccc([N+](=O)[O-])cc1`, which “log(1/C)” value is on record?
Its value is 2.06.

Which “log(1/C)” value does the source give for `COc1ccc(/N=N/N(C)C)cc1` here?
Its value is 2.72.

For `CN(C)/N=N/c1ccc(I)cc1`, which “log(1/C)” value is on record?
The value was 2.68.

Which “log(1/C)” value does the source give for `CN(C)/N=N/c1ccc(Br)cc1` here?
The value was 2.73.

For `CN(C)/N=N/c1ccc(F)cc1`, which “log(1/C)” value is on record?
Its value is 2.71.

With `CN(C)/N=N/c1ccc(Cl)cc1` as the compound, how does the “log(1/C)” value read?
Its value is 2.71.

Organism: Mus musculus
Assay: Toxicity in mouse assessed as concentration required for producing T/C of 140
Assay type: organism-based
Details: in vivo

Which “log(1/C)” value does the source give for `CCN(CC)/N=N/c1[nH]cnc1C(N)=O` here?
Its value is 2.75.

With `CCCN(CCC)/N=N/c1[nH]cnc1C(N)=O` as the compound, how does the “log(1/C)” value read?
Its value is 2.7.

With `CCCCN(CCCC)/N=N/c1[nH]cnc1C(N)=O` as the compound, how does the “log(1/C)” value read?
Its value is 2.91.

For `CCCCCN(CCCCC)/N=N/c1[nH]cnc1C(N)=O`, which “log(1/C)” value is on record?
The value was 3.49.

Which “log(1/C)” value does the source give for `CN(C)/N=N/c1[nH]cnc1C(N)=O` [DACARBAZINE] here?
The value was 2.44.

Organism: Mus musculus
Assay: Toxicity in CDF1 mouse assessed as concentration required for producing T/C of 140
Assay type: organism-based
Details: in vivo

With `CCCCN(C)/N=N/c1ccc(C(N)=O)cc1` as the compound, how does the “log(1/C)” value read?
The value was 3.46.

For `CCCCCCCCN(C)/N=N/c1ccc(C(N)=O)cc1`, which “log(1/C)” value is on record?
The value was 2.8.

Which “log(1/C)” value does the source give for `CN(C)/N=N/c1ccccc1` here?
Its value is 3.43.

With `CN(C)/N=N/c1ccc(S(N)(=O)=O)cc1` as the compound, how does the “log(1/C)” value read?
The value was 3.2.

With `CN(C)/N=N/c1ccc(C(F)(F)F)cc1` as the compound, how does the “log(1/C)” value read?
Its value is 3.05.

Which “log(1/C)” value does the source give for `CN(C)/N=N/c1ccc(C#N)cc1` here?
Its value is 3.2.

Which “log(1/C)” value does the source give for `CN(C)/N=N/c1ccc(NC(N)=O)cc1` here?
Its value is 3.68.

Which “log(1/C)” value does the source give for `Cc1ccc(/N=N/N(C)C)cc1` here?
The value was 3.26.

For `COc1ccc(/N=N/N(C)C)cc1`, which “log(1/C)” value is on record?
Its value is 3.55.

Which “log(1/C)” value does the source give for `CCN(C)/N=N/c1ccc(C(N)=O)cc1` here?
The value was 3.24.

For `CN(C)/N=N/c1ccc(C(N)=O)cc1`, which “log(1/C)” value is on record?
The value was 3.32.

For `CN(C)/N=N/c1[nH]cnc1C(N)=O` [DACARBAZINE], which “log(1/C)” value is on record?
Its value is 2.68.

System: not listed separately
Assay: Half life of the compound at pH 7.4 at 37 degC in presence of serum
Assay type: physicochemical
Details: not given

For `C/N=N/Nc1ccccc1`, which half-life is on record?
The half-life was 6 min.

System: L1210
Assay: Antitumor activity against mouse L1210 cells allografted in mouse assessed as survival rate at 100 mg/kg relative to control
Assay type: functional
Details: not given

Which T/C does the source give for `CCN(CC)/N=N/c1[nH]cnc1C(N)=O` here?
Its T/C is 127%.

System: L1210
Assay: Antitumor activity against mouse L1210 cells allografted in mouse assessed as survival rate at 200 mg/kg relative to control
Assay type: functional
Details: not given

Which T/C does the source give for `CCCCN(CC)/N=N/c1[nH]cnc1C(N)=O` here?
Its T/C is 124%.

With `CCN(CC)/N=N/c1n[nH]cc1C(N)=O` as the compound, how does the T/C read?
The T/C was 144%.

System: L1210
Assay: Antitumor activity against mouse L1210 cells allografted in mouse assessed as survival rate at 265 mg/kg relative to control
Assay type: functional
Details: not given

With `CCCN(CCC)/N=N/c1c(C)n[nH]c1C(=O)OC` as the compound, how does the T/C read?
Its T/C is 131%.

System: L1210
Assay: Antitumor activity against mouse L1210 cells allografted in mouse assessed as survival rate at 32 mg/kg relative to control
Assay type: functional
Details: not given

With `CCCCN(CCCC)/N=N/c1cc(=O)[nH]c(=O)[nH]1` as the compound, how does the T/C read?
The T/C was 145%.

System: L1210
Assay: Antitumor activity against mouse L1210 cells allografted in mouse assessed as survival rate at 250 mg/kg relative to control
Assay type: functional
Details: not given

For `NC(=O)c1nc[nH]c1/N=N/N1CCCC1`, which T/C is on record?
Its T/C is 126%.

System: L1210
Assay: Antitumor activity against mouse L1210 cells allografted in mouse assessed as survival rate at 20 mg/kg relative to control
Assay type: functional
Details: not given

Which T/C does the source give for `Cc1n[nH]c(C)c1/N=N/N1CCOCC1` here?
The T/C was 124%.

System: L1210
Assay: Antitumor activity against mouse L1210 cells allografted in mouse assessed as survival rate at 450 mg/kg relative to control
Assay type: functional
Details: not given

For `CCN(CC)/N=N/c1ccc[n+]([O-])c1`, which T/C is on record?
Its T/C is 141%.

Reference: ChEMBL document CHEMBL3272148, “Antitumor 1-(X-aryl)-3,3-dialkyltriazenes. 2. On the role of correlation analysis in decision making in drug modification. Toxicity quantitative structure-activity relationships of 1-(X-phenyl)-3,3-dialkyltriazenes in mice” (J Med Chem, 1978)
